From patent publication US11203574B2 (BioCryst Pharmaceuticals, Inc., priority 2014, dated 2021)

These compounds were tested against human plasma kallikrein (Homo sapiens (Human), UniProt P03952) (assay: Plasma kallikrein activity assay (chromogenic substrate S2302)). Settings: 2 nM kallikrein, 80 μM S2302, 30° C., pH 7.8; Ki by Cheng-Prusoff equation; values given as ranges; read-out: Ki.
human plasma kallikrein, sequence (P03952 whole entry, looked up): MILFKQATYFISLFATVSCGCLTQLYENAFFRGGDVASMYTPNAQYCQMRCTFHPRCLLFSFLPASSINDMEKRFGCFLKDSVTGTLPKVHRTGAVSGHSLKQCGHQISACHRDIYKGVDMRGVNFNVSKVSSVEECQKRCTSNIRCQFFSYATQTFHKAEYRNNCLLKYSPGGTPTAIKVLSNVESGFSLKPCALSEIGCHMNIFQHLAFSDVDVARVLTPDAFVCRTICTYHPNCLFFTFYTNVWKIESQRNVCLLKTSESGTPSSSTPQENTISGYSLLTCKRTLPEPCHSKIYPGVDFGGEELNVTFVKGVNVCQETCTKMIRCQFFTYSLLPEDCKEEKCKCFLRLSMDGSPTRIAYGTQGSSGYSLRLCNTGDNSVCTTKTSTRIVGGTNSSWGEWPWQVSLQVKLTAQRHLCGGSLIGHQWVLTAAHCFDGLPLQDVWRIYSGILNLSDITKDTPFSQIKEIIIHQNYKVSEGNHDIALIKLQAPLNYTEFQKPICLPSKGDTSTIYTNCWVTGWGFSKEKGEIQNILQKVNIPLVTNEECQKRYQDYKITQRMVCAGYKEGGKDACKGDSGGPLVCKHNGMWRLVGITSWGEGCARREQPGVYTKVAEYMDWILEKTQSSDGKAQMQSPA
human plasma kallikrein, sequence (P03952 whole entry partner, looked up): as the sequence (P03952 whole entry, looked up) above
Format: biochemical
Method: Plasma Kallikrein Activity Assay.
The effect of compounds of the invention on human plasma kallikrein activity was determined using the chromogenic substrates (DiaPharma Group, Inc., West Chester, Ohio, USA). In these experiments, 2 nM kallikrein (Enzyme Research Laboratories, South Bend, Ind., USA) was incubated with 80 μM S2302 (H-D-Pro-Phe-Arg-p-nitroaniline) in the absence or presence of increasing concentrations of compounds of the invention in a final volume of 200 μL Tris-HCl buffer (200 mM NaCl; mM CaCl2; 50 mM Tris-HCl, pH 7.8).
Data were analyzed using SigmaPlot software (Systat Software, Inc., San Jose, Calif., USA) (Four Parameter Logistic Curve).
In the case of CCOC(c1ccccc1)c1ccc(F)c(NC(=O)c2cc(C(F)(F)F)nn2-c2cccc(CN)c2)c1 (stereo not shown) [25b, 1-(3-(aminomethyl)phenyl)-N-(5-(ethoxy(phenyl)methyl)-2-fluorophenyl)-3-(trifluoromethyl)-1H-pyrazole-5-carboxamide], the Ki is reported as 0.05 to 0.1 µM.
Compound CCCN(c1ccccc1)c1cccc(NC(=O)c2cc(C(F)(F)F)nn2-c2cccc(CN)c2)c1 [27f, 1-(3-(aminomethyl)phenyl)-N-(3-(phenyl(propyl)amino)phenyl)-3-(trifluoromethyl)-1H-pyrazole-5-carboxamide] has a Ki of 0.05 to 0.1 µM.
For CCCN(c1ccccc1)c1cccc(NC(=O)c2cc(C(F)(F)F)nn2-c2cccc(CN)c2)c1F [29e, 1-(3-(aminomethyl)phenyl)-N-(2-fluoro-3-(phenyl(propyl)amino)phenyl)-3-(trifluoromethyl)-1H-pyrazole-5-carboxamide], the Ki was 0.0001 to 0.05 µM.
CCCCC(c1ccccc1)c1cccc(NC(=O)c2cc(C(F)(F)F)nn2-c2cccc(CN)c2)c1 (stereo not shown) [32f, 1-(3-(aminomethyl)phenyl)-N-(3-(1-phenylpentyl)phenyl)-3-(trifluoromethyl)-1H-pyrazole-5-carboxamide] was tested, and the Ki was 0.05 to 0.1 µM.
Work on NCc1cccc(-n2nc(C(F)(F)F)cc2C(=O)Nc2cccc(C(O)c3ccccc3)c2F)c1 (stereo not shown) [35g, 1-(3-(aminomethyl)phenyl)-N-(2-fluoro-3-(hydroxy(phenyl)methyl)phenyl)-3-(trifluoromethyl)-1H-pyrazole-5-carboxamide] yielded a Ki of 0.05 to 0.1 µM.
For NCc1cccc(-n2nc(C(F)(F)F)cc2C(=O)Nc2cccc(C(OCC3CC3)c3ccccc3)c2F)c1 (stereo not shown) [36d, 1-(3-(aminomethyl)phenyl)-N-(3-((cyclopropylmethoxy)(phenyl)methyl)-2-fluorophenyl)-3-(trifluoromethyl)-1H-pyrazole-5-carboxamide], the Ki was 0.0001 to 0.05 µM.
NCc1cccc(-n2nc(C(F)(F)F)cc2C(=O)Nc2cccc(C(O)(CCC3CC3)c3ccccn3)c2)c1 (stereo not shown) [45g, 1-(3-(aminomethyl)phenyl)-N-(3-(3-cyclopropyl-1-hydroxy-1-(pyridin-2-yl)propyl)phenyl)-3-(trifluoromethyl)-1H-pyrazole-5-carboxamide] gave a Ki of 0.0001 to 0.05 µM.
NCc1cccc(-n2nc(C(F)(F)F)cc2C(=O)Nc2cccc(C(OCC3CC3)c3cccc(N)c3)c2)c1 (stereo not shown) [53f, 1-(3-(aminomethyl)phenyl)-N-(3-((3-aminophenyl)(cyclopropyl-methoxy)methyl)phenyl)-3-(trifluoromethyl)-1H-pyrazole-5-carboxamide] was tested, and the Ki was 0.0001 to 0.05 µM.
NCc1cccc(-n2nc(C(F)(F)F)cc2C(=O)Nc2cccc(C(OCC3CCC3)c3ccccc3)c2)c1 (stereo not shown) [75a, 1-(3-(aminomethyl)phenyl)-N-(3-((cyclobutylmethoxy)(phenyl)methyl)phenyl)-3-(trifluoromethyl)-1H-pyrazole-5-carboxamide] showed a Ki of 0.05 to 0.1 µM.
In the case of CCCN(c1ccccc1)c1ccc(F)c(NC(=O)c2cc(C(F)(F)F)nn2-c2cccc(CN)c2)c1 [77e, 1-(3-(aminomethyl)phenyl)-N-(2-fluoro-5-(phenyl(propyl)amino)phenyl)-3-(trifluoromethyl)-1H-pyrazole-5-carboxamide], the Ki is reported as 0.0001 to 0.05 µM.
NCc1cccc(-n2nc(C(F)(F)F)cc2C(=O)Nc2cccc(C(CCC3CC3)c3ccccc3)c2)c1 (stereo not shown) [78d, 1-(3-(aminomethyl)phenyl)-N-(3-(3-cyclopropyl-1-phenylpropyl)phenyl)-3-(trifluoromethyl)-1H-pyrazole-5-carboxamide] gave a Ki of 0.0001 to 0.05 µM.
For NCc1cccc(-n2nc(C(F)(F)F)cc2C(=O)Nc2cccc(C(NCC3CC3)c3cccnc3)c2)c1 (stereo not shown) [79f, 1-(3-(Aminomethyl)phenyl)-N-(3-(((cyclopropylmethyl)amino)(pyridin-3-yl)methyl)phenyl)-3-(trifluoromethyl)-1H-pyrazole-5-carboxamide], the Ki was 0.0001 to 0.05 µM.
Work on NCc1cccc(-n2nc(C(F)(F)F)cc2C(=O)Nc2cc(F)cc(C(OCC3CC3)c3ccccc3)c2)c1 (stereo not shown) [80h, 1-(3-(aminomethyl)phenyl)-N-(3-((cyclopropylmethoxy)(phenyl)methyl)-5-fluorophenyl)-3-(trifluoromethyl)-1H-pyrazole-5-carboxamide] yielded a Ki of 0.0001 to 0.05 µM.
Work on NCc1cccc(-n2nc(C(F)(F)F)cc2C(=O)Nc2cccc(C(OCC3CC3)c3nccs3)c2)c1 (stereo not shown) [82f, 1-(3-(aminomethyl)phenyl)-N-(3-((cyclopropylmethoxy)(thiazol-2-yl)methyl)phenyl)-3-(trifluoromethyl)-1H-pyrazole-5-carboxamide] yielded a Ki of 0.0001 to 0.05 µM.
NCc1cccc(-n2nc(C(F)(F)F)cc2C(=O)Nc2cccc(C(NCC3CC3)c3ccccn3)c2)c1 (stereo not shown) [83c, 1-(3-(aminomethyl)phenyl)-N-(3-((cyclopropylmethylamino)(pyridin-2-yl)methyl)phenyl)-3-(trifluoromethyl)-1H-pyrazole-5-carboxamide] was tested, and the Ki was 0.0001 to 0.05 µM.
With NCc1cccc(-n2nc(C(F)(F)F)cc2C(=O)Nc2cccc(C(NCC3CC3)c3cn[nH]c3)c2)c1 (stereo not shown) [84h, 1-(3-(aminomethyl)phenyl)-N-(3-(((cyclopropylmethyl)amino)(1H-pyrazol-4-yl)methyl)phenyl)-3-(trifluoromethyl)-1H-pyrazole-5-carboxamide] the Ki was 0.0001 to 0.05 µM.
NCc1cccc(-n2nc(C(F)(F)F)cc2C(=O)Nc2cccc(C(NCC3CC3)c3nccs3)c2)c1 (stereo not shown) [85c, 1-(3-(aminomethyl)phenyl)-N-(3-((cyclopropylmethylamino)(thiazol-2-yl)methyl)phenyl)-3-(trifluoromethyl)-1H-pyrazole-5-carboxamide] showed a Ki of 0.0001 to 0.05 µM.
Compound NCc1cccc(-n2nc(C(F)(F)F)cc2C(=O)Nc2cccc(C(NCC3CC3)c3ccncc3)c2)c1 (stereo not shown) [86g, 1-(3-(aminomethyl)phenyl)-N-(3-((cyclopropylmethylamino)(pyridin-4-yl)methyl)phenyl)-3-(trifluoromethyl)-1H-pyrazole-5-carboxamide] has a Ki of 0.0001 to 0.05 µM.
Compound NCc1cccc(-n2nc(C(F)(F)F)cc2C(=O)Nc2cccc(N(CCC3CC3)c3ccccc3)c2)c1 [87f, 1-(3-(aminomethyl)phenyl)-N-(3-((2-cyclopropylethyl)(phenyl)amino)phenyl)-3-(trifluoromethyl)-1H-pyrazole-5-carboxamide] has a Ki of 0.0001 to 0.05 µM.
For NCc1cccc(-n2nc(C(F)(F)F)cc2C(=O)Nc2cccc(C(NCC3CC3)c3ccccc3)c2F)c1 (stereo not shown) [88b, 1-(3-(aminomethyl)phenyl)-N-(3-((cyclopropylmethylamino)(phenyl)methyl)-2-fluorophenyl)-3-(trifluoromethyl)-1H-pyrazole-5-carboxamide], the Ki was 0.0001 to 0.05 µM.
NCc1cccc(-n2nc(C(F)(F)F)cc2C(=O)Nc2cccc(C(CCC3CC3)n3ccnc3)c2)c1 (stereo not shown) [89g, 1-(3-(aminomethyl)phenyl)-N-(3-(3-cyclopropyl-1-(1H-imidazol-1-yl)propyl)phenyl)-3-(trifluoromethyl)-1H-pyrazole-5-carboxamide] showed a Ki of 0.0001 to 0.05 µM.
NCc1cccc(-n2nc(C(F)(F)F)cc2C(=O)Nc2cccc(C(O)(CCC3CC3)c3ccncc3)c2)c1 (stereo not shown) [92g, 1-(3-(aminomethyl)phenyl)-N-(3-(3-cyclopropyl-1-hydroxy-1-(pyridin-4-yl)propyl)phenyl)-3-(trifluoromethyl)-1H-pyrazole-5-carboxamide] gave a Ki of 0.0001 to 0.05 µM.
For NCc1cccc(-n2nc(C(F)(F)F)cc2C(=O)Nc2cc(C(NCC3CC3)c3cccnc3)ccc2F)c1 (stereo not shown) [94b, 1-(3-(aminomethyl)phenyl)-N-(5-((cyclopropylmethylamino)(pyridin-3-yl)methyl)-2-fluorophenyl)-3-(trifluoromethyl)-1H-pyrazole-5-carboxamide], the Ki was 0.0001 to 0.05 µM.
NCc1cccc(-n2nc(C(F)(F)F)cc2C(=O)Nc2cc(C(NCC3CC3)c3cccnc3)ccc2Cl)c1 (stereo not shown) [96f, 1-(3-(Aminomethyl)phenyl)-N-(2-chloro-5-((cyclopropylmethylamino)(pyridin-3-yl)methyl)phenyl)-3-(trifluoromethyl)-1H-pyrazole-5-carboxamide] gave a Ki of 0.0001 to 0.05 µM.
Work on NCc1cccc(-n2nc(C(F)(F)F)cc2C(=O)Nc2cccc(C(CCC3CC3)N3CCCC3)c2)c1 (stereo not shown) [98b, 1-(3-(aminomethyl)phenyl)-N-(3-(3-cyclopropyl-1-(pyrrolidin-1-yl)propyl)phenyl)-3-(trifluoromethyl)-1H-pyrazole-5-carboxamide] yielded a Ki of 0.0001 to 0.05 µM.
In the case of NCc1cccc(-n2nc(C(F)(F)F)cc2C(=O)Nc2cccc(C(O)(CNC3CC3)c3ccccc3)c2)c1 (stereo not shown) [99g, 1-(3-(aminomethyl)phenyl)-N-(3-(2-(cyclopropylamino)-1-hydroxy-1-phenylethyl)phenyl)-3-(trifluoromethyl)-1H-pyrazole-5-carboxamide], the Ki is reported as 0.0001 to 0.05 µM.
NCc1cccc(-n2nc(C(F)(F)F)cc2C(=O)Nc2cc(C(NCC3CC3)c3ccccn3)ccc2F)c1 (stereo not shown) [100e, 1-(3-(aminomethyl)phenyl)-N-(5-((cyclopropylmethylamino)(pyridin-2-yl)methyl)-2-fluorophenyl)-3-(trifluoromethyl)-1H-pyrazole-5-carboxamide] gave a Ki of 0.0001 to 0.05 µM.
With NCc1cccc(-n2nc(C(F)(F)F)cc2C(=O)Nc2cc(C(NCC3CC3)c3nccs3)ccc2F)c1 (stereo not shown) [101e, 1-(3-(Aminomethyl)phenyl)-N-(5-((cyclopropylmethylamino)(thiazol-2-yl)methyl)-2-fluorophenyl)-3-(trifluoromethyl)-1H-pyrazole-5-carboxamide] the Ki was 0.0001 to 0.05 µM.
Work on NCc1cccc(-n2nc(C(F)(F)F)cc2C(=O)Nc2cccc(C(NCC3CC3)c3cccc(N)c3)c2)c1 (stereo not shown) [102b, 1-(3-(aminomethyl)phenyl)-N-(3-((3-aminophenyl)(cyclopropylmethylamino)methyl)phenyl)-3-(trifluoromethyl)-1H-pyrazole-5-carboxamide] yielded a Ki of 0.0001 to 0.05 µM.
NCc1cccc(-n2nc(C(F)(F)F)cc2C(=O)Nc2cccc(C(CCC3CC3)c3cc[nH]c3)c2)c1 (stereo not shown) [103b, 1-(3-(aminomethyl)phenyl)-N-(3-(3-cyclopropyl-1-(1H-pyrrol-3-yl)propyl)phenyl)-3-(trifluoromethyl)-1H-pyrazole-5-carboxamide] showed a Ki of 0.0001 to 0.05 µM.

Same assay, conditions: Ki, 2 nM kallikrein, 80 μM S2302, 30° C., pH 7.8; Ki by Cheng-Prusoff equation; values given as ranges
In the case of NCc1cccc(-n2nc(C(F)(F)F)cc2C(=O)Nc2cccc(C(OCCC3CC3)c3ccccc3)c2)c1 (stereo not shown) [74a, 1-(3-(aminomethyl)phenyl)-N-(3-((2-cyclopropylethoxy)(phenyl)methyl)phenyl)-3-(trifluoromethyl)-1H-pyrazole-5-carboxamide], the Ki is reported as 0.0001 to 0.05 µM.
